“And” between values parts separate entries of the source, which are not always exact repeats. Identical values can stand only once.
What was measured:
[1] = tested on: HCT116 cells; experiment: Inhibition of topotecan induced G2 arrest in vitro (FACS); format: cell-based; conditions: for inhibition of topotecan induced G2 arrest: 24 h
Protocol: (§3) The compounds were added to the cells after G2 arrest induced by 18 h topotecan treatment at the indicated concentrations and incubated for a period of 24 h. Cells were then harvested and analyzed by FACS.
(§4) Fixed cells were centrifuged at 1600 rpm for 5 minutes and the ETOH was decanted. They were then washed with 2 ml of PBS, recentrifuged and decanted. The cells were then stained with propidium iodide. Cell cycle study was performed using a FACSCalibur (Becton Dickinson) using Cell-QuestPro software. Cell cycle distribution was determined using either Modfit (Verity software house, ME, USA) or WinMDI (Joseph Trotter, Scripps Institute) software.

[2] = tested on: tumor; conditions: 100 and 200 mg/kg, intraperitoneal injection, literature; cited from earlier work
[3] = tested on: HCT116 cells; experiment: In vivo hollow fibre PD model, topotecan G2 arrested cells implanted in mice (FACS); conditions: for 0 h G2 % / 24 h % G1 / 24 h % G2 / Δ% G2/ Δ% G1 / SΔ % G2: Control TOP (vehicle); for SΔ % G2: % G2 at 24 h - % G2 at 0 h
Protocol: Specifically, HCT116 cells were first arrested at G2 with topotecan (TOP) treatment. At the end of 18 h topotecan treatment, fibres were implanted subcutaneously to mice with 4 fibres per mouse (FIG. 3A). Control fibres without topotecan treatment were also included (FIGS. 3F, G). […] The first injection was administered immediately after fibre implantation while the second injection was given 5 hours later. Mice in the TOP alone control group (n=2) received vehicle (0.9% NaCl) only (FIG. 3D). After implantation, fibres (8 fibres per time point) were retrieved from mice at indicated time points. Cells were then flushed out from the fibres and analyzed by FACS and immunoblotting.
At indicated time points, fibres were removed from mice, wiped with gauze and placed in petri dishes or 6 well plates containing enough warm media to cover fibres. Both ends of the fibres were then cut open using forceps and scissors. The fibres were flushed twice with a 200 μL pipette filled with medium by inserting into fibre opening. The medium containing the cells were collected and centrifuged for 3-minutes at 1600 rpm. The supernatant was discarded and 1 mL of trypsin was added onto the pellets and mixed until single cell suspension is obtained. Then, 5 mL of serum rich medium was added to the cell suspension and centrifuged. The supernatant was then decanted leaving approximately 200 μL of cell suspension. The suspension was then added. drop wise while vortexing to 5 mL of ice cold 70% ETOH. Cells were then fixed at −20° C. for a minimum of 1 hour. The cells obtained were then processed according to FACS staining protocol. 3-8 fibres from each time point were typically used for FACS analysis.

[4] = tested on: H460 cells; experiment: Inhibition of topotecan induced G2 arrest in vitro (FACS); format: cell-based; conditions: 24 h
Protocol: as §3, §4

[5] = tested on: HCT116 cells; experiment: Double thymidine block and G2 arrest with brief topotecan treatment in vitro; format: cell-based; conditions: 1 h treatment, 24 h after block removal
Protocol: We adapted the study of G2 checkpoint regulation to the study of other cell cycle regulation pathways. Cells were first synchronized at the G1/S boundary by means of a double thymidine block (FIG. 7A-F). After synchronization, cells were harvested at indicated time points for observation of cell cycle progression (7B, C). To arrest cells at G2 checkpoint, the synchronized cells were incubated with topotecan at indicated concentrations for 1 h, and the topotecan was added 30 to 60 minutes after the release of double thymidine block. Topotecan treated cells were then harvested 24 h after double thymidine block and analyzed with FACS. Alternatively, at the end of double thymidine block, fibres were implanted to mice subcutaneously (4 fibres per mouse); fibres were retrieved from mice at the specified time points (8 fibres per time point) and analyzed by FACS. Control fibers without double thymidine treatment (8A, F) were also included.
Cells were plated onto 10-cm dishes on day 1 such that 30% confluence is reached on day 2. In hollow fibre experiments, loaded fibres were made on day 1, and incubated in the dishes overnight. On day 2, thymidine was added to the dishes to a final concentration of 2 mM. […] Cells were harvested 24 hours after the second thymidine treatment, and analyzed by FACS analysis. […]

[6] = tested on: HCT116 cells; experiment: Topotecan induced G2 arrest in vitro (topotecan titration, FACS); format: cell-based
Protocol: (§1) To perform the experiments, cells were grown to 50% confluency in 10 cm dishes. The cells were then dosed with topotecan at indicated concentrations for 18 hours. Cells were then harvested and the G2 arrest was analyzed by FACS analysis 24 h later.
(§2) The cells were then stained with propidium iodide.

[7] = tested on: H460 cells; experiment: as above; format: cell-based
Protocol: as §1, §2

[8] = TOP alone (50 nM, 18 h), 30 h, mean
[9] = TOP alone (50 nM, 18 h), 30 h, single replicates, listed as TOP

## Cn1c(=O)c2c(ncn2C)n(C)c1=O [Caffeine]
[1]; 4 mM, HCT116
  inhibition of topotecan induced G2 arrest: significantly inhibits topotecan induced G2 arrest
[2]
  sensitization of tumor to radiotherapy by inhibiting radiation induced G2 arrest: sensitize tumor to radiotherapy
[3]; systemic injection to mice
  inhibition of topotecan induced G2 arrest in tumor cells in vivo: inhibit topotecan induced G2 arrest
[4]; 4 mM, H460
  inhibition of topotecan induced G2 arrest: significantly inhibits topotecan induced G2 arrest

## Cn1c2ccccc2c2c3c(c4c5ccccc5n(CCC#N)c4c21)CNC3=O [Go6976]
[1]; 1.3 μM, HCT116 (FIG. 2H)
  inhibition of topotecan induced G2 arrest: effectively inhibits G2 arrest
[1]; Go6976 alone at the tested concentration
  toxicity to cells (microscope, FACS): does not show any signs of toxicity
[4]; 5 μM, H460 (FIG. 2D)
  inhibition of topotecan induced G2 arrest: effectively inhibits G2 arrest

## CC[C@@]1(O)C(=O)OCc2c1cc1n(c2=O)Cc2cc3c(CN(C)C)c(O)ccc3nc2-1 [Topotecan]
[5]; 2 μM
  G2 arrest of double thymidine block synchronized cells: complete G2 arrest
[5]; 5 μM
  S phase arrest of double thymidine block synchronized cells: noticeable S phase arrest
[3]; 30 nM topotecan, 30 h
  G2 arrest at 30 hour after implantation: ~70%
[3]; 50 nM topotecan 18 h, HCT116 in hollow fibres, 0 h
  cells arrested at G2/M phase at time 0 h: About 90%
[3]; 50 nM topotecan, 30 h
  G2 arrest at 30 hour after implantation: about 90%
[3]; Exp. 1, 0 h
  0 h G2 %: 83.00%
[3]; Exp. 1, 24 h
  24 h % G1: 23.00%
  24 h % G2: 71.00%
  Δ% G2/ Δ% G1: 3.09
[3]; Exp. 1
  SΔ % G2: −12.00%
[3]; Exp. 2, 0 h
  0 h G2 %: 69.00%
[3]; Exp. 2, 24 h
  24 h % G1: 16.00%
  24 h % G2: 58.00%
  Δ% G2/ Δ% G1: 3.63
[3]; Exp. 2
  SΔ % G2: −11.00%
[3]; [8]
  % G1, Mean: 7.9%
  % G2, Mean: 88.7%
  Odd (% G2/% G1), Mean: 11.4
[3]; [9]
  % G1: 7.3% and 7.2% and 9.0%
  % G2: 88.1% and 90.2% and 87.9%
  Odd (% G2/% G1): 12.0 and 12.5 and 9.7
[3]; TOP alone, reference group
  Odd ratio: 1.0
[6]; HCT116
  time at which cells begin to reenter the cell cycle after topotecan treatment: ~9 h
[6]; HCT116, 18 h treatment
  minimal concentration required to achieve an efficient G2 arrest: 25 nM
[7]; H460
  time at which cells begin to reenter the cell cycle after topotecan treatment: about 7 h
[7]; H460, 18 h treatment
  concentration that sufficiently arrests cells at the G2 checkpoint: 50 nM
